Measured values as given in patent US20060228388A1, “Method for controlling an insect species using a synthetic trail pheromone mimic” (priority 2005, published 2006).

Assays:
[1] = tested on: forest tent caterpillar colonies; test: Field colony disruption by blanket spraying trees with pheromone-mimic; type: in vivo, Malacosoma disstria; settings: third experiment; ash trees; 1 ppm spray; within one week
Description: (§1) Three experiments were conducted, all employing the following protocol. Trees in the experimental plot were divided into two groups. Trees in one group were sprayed with a 1 part per million (ppm) pheromone-mimic formulation and trees in another group were sprayed with a control solution identical to the pheromone mimic formulation except that it lacked the pheromone-mimic. Egg masses were attached to each tree and the fate of the colonies determined by observation.
(§2) In the second experiment, ten control colonies of the eastern tent caterpillar on apple trees survived and thrived while all of ten colonies on treated trees were destroyed within one week. […] While the exact fate of caterpillars on the treated trees is unknown, they most likely succumbed to a combination of weather related factors, starvation, predation, and falls from the trees.

tent caterpillars = test: Threshold sensitivity to a narrow line of compound on a paper card; type: in vivo, Malacosoma spp.; settings: compound laid out in a narrow line on a paper card
Description: (§3) The threshold sensitivity of tent caterpillars to 5β-cholestan-3-one laid out in a narrow line on a paper card was determined to be approximately 10^−11 g/mm. Field tests were conducted by using the compound to form artificial trails that intersected well established, authentic trunk trails of colonies of 3rd-5th instar ETCs. In 19 of 23 replicates of these tests, each involving a different colony, colonies abandoned their authentic trail systems and followed the pathways marked with 5β-cholestan-3-one. […] Other studies indicate that the authentic trail pheromone of the tent caterpillar (Malacosoma spp.) may differ subtly from 5β-cholestan-3-one. Thus, 5β-cholestan-3-one is best considered an analog, or pheromone mimic of the authentic tent caterpillar pheromone.

[2] = tested on: eastern tent caterpillar colonies; test: Field colony disruption by blanket spraying trees with pheromone-mimic; type: in vivo, Malacosoma americanum
Description: as §1, §2

[3] = tested on: colonies of 3rd-5th instar ETCs; test: Field test: artificial trails intersecting authentic trunk trails of colonies; type: in vivo, Malacosoma americanum
Description: as §3

CC(C)CCC[C@@H](C)[C@H]1CC[C@H]2[C@@H]3CC[C@@H]4CC(=O)CC[C@]4(C)[C@H]3CC[C@]12C [5β-cholestan-3-one]
colonies on treated trees perished [1]: all of fifteen | threshold sensitivity of tent caterpillars (tent caterpillars): approximately 10^−11 g/mm | fate of the remaining treated colonies ([2]; first experiment, cherry trees, 1 ppm spray, three remaining colonies): eventually died out | treated colonies completely destroyed ([2]; first experiment, cherry trees, 1 ppm spray, within several days): seven of ten | colonies on treated trees destroyed ([2]; second experiment, apple trees, 1 ppm spray, within one week): all of ten | disrupting the communicative system of the ETC ([2]; solution containing 1 ppm): effective | replicates in which colonies abandoned their authentic trail systems and followed the marked pathways ([3]; field, each replicate a different colony of 3rd-5th instar ETCs): 19 of 23 | competitiveness with authentic recruitment trails of the caterpillar ([3]; in vivo): fully competitive
